Assay results from PubChem BioAssay AID342 (DTP/NCI, 2004).
“And” between values parts separate entries of the source, which are not always exact repeats. Identical values can stand only once.

Tested on: Swiss mice, Sarcoma 180 sc, mean tumor weight T/C
Assay: NCI In Vivo Anticancer Drug Screen. Data for tumor model Sarcoma 180 (subcutaneous) in Swiss mice
Conditions: endpoint: mean tumor weight, higher = larger tumour
Description: The antitumor activity of compounds was measured in mice bearing transplantable tumors. Survival or tumor size were measured and the results are expressed as the measurement made in the treated group (T) divided by the measurement made in the vehicle treated control group (C). The tumor model used in this assay is Sarcoma 180 (subcutaneous) in Swiss mice

[1] = dose: 6.6 mg/kg/injection, schedule: Q01DX007 (ip), vehicle: saline
[2] = dose: 10.0 mg/kg/injection, schedule: Q01DX007 (ip), vehicle: saline
[3] = dose: 10.0 mg/kg/injection, schedule: Q01DX007 (sc), vehicle: steriod suspending solution
[4] = dose: 22.0 mg/kg/injection, schedule: Q01DX007 (ip), vehicle: saline
[5] = dose: 100.0 mg/kg/injection, schedule: Q01DX007 (ip), vehicle: carboxymethylcellulose (CMC)

`CCCCOP(=S)(N1CC1)N1CC1` was tested, and the T/C (dose: 0.25 mg/kg/injection, schedule: Q01DX007 (ip), vehicle: saline) was 97 % of control, the T/C (dose: 0.5 mg/kg/injection, schedule: Q01DX007 (ip), vehicle: saline) was 73 % of control and the T/C (dose: 0.75 mg/kg/injection, schedule: Q01DX007 (ip), vehicle: other) was 124 % of control. The T/C (dose: 0.75 mg/kg/injection, schedule: Q01DX007 (ip), vehicle: saline) was 86 % of control, the T/C (dose: 1.0 mg/kg/injection, schedule: Q01DX007 (ip), vehicle: saline) was 70 % of control and the T/C (dose: 1.5 mg/kg/injection, schedule: Q01DX007 (ip), vehicle: other) was 79 % of control. The T/C (dose: 1.5 mg/kg/injection, schedule: Q01DX007 (ip), vehicle: saline) was 70 % of control, the T/C (dose: 1.8 mg/kg/injection, schedule: Q01DX007 (ip), vehicle: saline) was 33 % of control and the T/C (dose: 2.8 mg/kg/injection, schedule: Q01DX007 (ip), vehicle: saline) was 9 % of control. The T/C (dose: 3.0 mg/kg/injection, schedule: Q01DX007 (ip), vehicle: other) was 87 % of control, the T/C (dose: 3.0 mg/kg/injection, schedule: Q01DX007 (ip), vehicle: saline) was 57 % of control and the T/C (dose: 4.3 mg/kg/injection, schedule: Q01DX007 (ip), vehicle: saline) was 11 % of control. The T/C (dose: 6.0 mg/kg/injection, schedule: Q01DX007 (ip), vehicle: other) was 91 % of control, the T/C (dose: 6.0 mg/kg/injection, schedule: Q01DX007 (ip), vehicle: saline) was 31 % of control and the T/C [1] was 3 % of control. For the same compound, the T/C (dose: 7.5 mg/kg/injection, schedule: Q#A X014 (ip), vehicle: saline) was 28 % of control, the T/C (dose: 10.0 mg/kg/injection, schedule: Q01DX007 (ip), vehicle: other) was 103 % of control and the T/C [2] was 17 % of control. For the same compound, the T/C (dose: 10.0 mg/kg/injection, schedule: Q## X000 (ip), vehicle: saline) was 17 % of control, the T/C (dose: 15.0 mg/kg/injection, schedule: Q## X000 (ip), vehicle: saline) was 2 % of control and the T/C (dose: 22.5 mg/kg/injection, schedule: Q## X000 (ip), vehicle: saline) was 3 % of control.
With `C[C@H]1CC[C@@H]2[C@@H](C)[C@H]3[C@H](C[C@H]4[C@@H]5CC=C6C[C@@H](O)CC[C@]6(C)[C@H]5C[C@H](O)[C@]34C)N2C1` the T/C [3] was 73 % of control, the T/C (dose: 50.0 mg/kg/injection, schedule: Q01DX007 (sc), vehicle: steriod suspending solution) was 44 % of control and the T/C (dose: 100.0 mg/kg/injection, schedule: Q01DX007 (sc), vehicle: steriod suspending solution) was 62 % of control.
For `CC(=O)[C@@]1(O)CC[C@H]2[C@@H]3CCC4=CC(=O)CC[C@]4(C)[C@@]3(F)[C@@H](O)C[C@@]21C`, the T/C (dose: 12.0 mg/kg/injection, schedule: Q01DX007 (sc), vehicle: steriod suspending solution) was 67 % of control, the T/C (dose: 25.0 mg/kg/injection, schedule: Q01DX007 (sc), vehicle: steriod suspending solution) was 69 % of control and the T/C (dose: 55.0 mg/kg/injection, schedule: Q01DX007 (sc), vehicle: steriod suspending solution) was 40 % of control. For the same compound, the T/C (dose: 111.0 mg/kg/injection, schedule: Q01DX007 (sc), vehicle: steriod suspending solution) was 40 % of control and 42 % of control, the T/C (dose: 166.0 mg/kg/injection, schedule: Q01DX007 (sc), vehicle: steriod suspending solution) was 61 % of control and the T/C (dose: 250.0 mg/kg/injection, schedule: Q01DX007 (sc), vehicle: steriod suspending solution) was 58 % of control. The T/C (dose: 375.0 mg/kg/injection, schedule: Q01DX007 (sc), vehicle: steriod suspending solution) was 44 % of control.
With `O=C(O)c1ccc(N=NSc2ncnc3nc[nH]c23)cc1O` the T/C (dose: 0.2 mg/kg/injection, schedule: Q01DX007 (ip), vehicle: carboxymethylcellulose (CMC)) was 101 % of control, the T/C (dose: 0.5 mg/kg/injection, schedule: Q01DX007 (ip), vehicle: carboxymethylcellulose (CMC)) was 115 % of control and the T/C (dose: 1.0 mg/kg/injection, schedule: Q01DX007 (ip), vehicle: carboxymethylcellulose (CMC)) was 108 % of control. The T/C (dose: 8.0 mg/kg/injection, schedule: Q01DX007 (ip), vehicle: carboxymethylcellulose (CMC)) was 9 % of control.
`CN1CC2CC(C1)c1cccc(=O)n1C2` (stereo not drawn) was tested, and the T/C [1] was 111 % of control, the T/C [2] was 49 % of control and the T/C (dose: 15.0 mg/kg/injection, schedule: Q01DX007 (ip), vehicle: saline) was 113 % of control. The T/C [4] was 74 % of control.
For `CC(C)CC(C)(C[N+](=O)[O-])C[N+](=O)[O-]`, the T/C (dose: 4.0 mg/kg/injection, schedule: Q01DX007 (ip), vehicle: saline) was 93 % of control.
For `CCCCn1cnc2c(=S)nc[nH]c21`, the T/C (dose: 12.5 mg/kg/injection, schedule: Q01DX007 (ip), vehicle: carboxymethylcellulose (CMC)) was 77 % of control, the T/C (dose: 25.0 mg/kg/injection, schedule: Q01DX007 (ip), vehicle: carboxymethylcellulose (CMC)) was 53 % of control and the T/C (dose: 50.0 mg/kg/injection, schedule: Q01DX007 (ip), vehicle: carboxymethylcellulose (CMC)) was 63 % of control. For the same compound, the T/C [5] was 29 % of control.
With `CCC(=O)O[C@H]1CC[C@H]2[C@@H]3CCC4=CC(=O)CC[C@]4(C)[C@H]3[C@@H](O)C[C@]12C` the T/C (dose: 12.5 mg/kg/injection, schedule: Q#A X014 (sc), vehicle: steriod suspending solution) was 96 % of control, the T/C (dose: 125.0 mg/kg/injection, schedule: Q#A X014 (sc), vehicle: steriod suspending solution) was 88 % of control and the T/C (dose: 250.0 mg/kg/injection, schedule: Q#A X014 (sc), vehicle: steriod suspending solution) was 94 % of control.
In the case of `O=c1[nH]c2cc(Cl)c(Cl)cc2o1`, the T/C (dose: 19.0 mg/kg/injection, schedule: Q01DX007 (ip), vehicle: carboxymethylcellulose (CMC)) is reported as 83 % of control, the T/C (dose: 37.5 mg/kg/injection, schedule: Q01DX007 (ip), vehicle: carboxymethylcellulose (CMC)) is reported as 90 % of control and the T/C (dose: 75.0 mg/kg/injection, schedule: Q01DX007 (ip), vehicle: carboxymethylcellulose (CMC)) is reported as 94 % of control. The T/C (dose: 150.0 mg/kg/injection, schedule: Q01DX007 (ip), vehicle: carboxymethylcellulose (CMC)) was 81 % of control.
`C=CCOc1ccc2c(c1)CC[C@@H]1[C@@H]2CC[C@]2(C)[C@@H](O)[C@H](O)C[C@@H]12` was tested, and the T/C (dose: 2.5 mg/kg/injection, schedule: Q01DX007 (sc), vehicle: steriod suspending solution) was 105 % of control, the T/C (dose: 5.0 mg/kg/injection, schedule: Q01DX007 (sc), vehicle: steriod suspending solution) was 120 % of control and the T/C [3] was 82 % of control.
`Cn1cnc([N+](=O)[O-])c1Sc1nc(N)nc2nc[nH]c12` was tested, and the T/C (dose: 1.35 mg/kg/injection, schedule: Q#A X014 (ip), vehicle: methylcellulose (MC)) was 95 % of control, the T/C (dose: 3.0 mg/kg/injection, schedule: Q#A X014 (ip), vehicle: methylcellulose (MC)) was 31 % of control and the T/C (dose: 5.0 mg/kg/injection, schedule: Q#A X014 (ip), vehicle: methylcellulose (MC)) was 27 % of control. For the same compound, the T/C (dose: 5.15 mg/kg/injection, schedule: Q#A X014 (ip), vehicle: methylcellulose (MC)) was 29 % of control, the T/C (dose: 7.5 mg/kg/injection, schedule: Q#A X014 (ip), vehicle: methylcellulose (MC)) was 22 % of control and the T/C (dose: 7.75 mg/kg/injection, schedule: Q#A X014 (ip), vehicle: methylcellulose (MC)) was 29 % of control. For the same compound, the T/C (dose: 11.5 mg/kg/injection, schedule: Q#A X014 (ip), vehicle: methylcellulose (MC)) was 3 % of control.
For `CCCCNc1nc(NCCCC)c2nsnc2n1`, the T/C (dose: 80.0 mg/kg/injection, schedule: Q01DX007 (ip), vehicle: carboxymethylcellulose (CMC)) was 46 % of control and the T/C [5] was 56 % of control.
`COC1N(C2CC(O)C(CO)O2)C(=O)NC(=O)C1(F)Br` (stereo not drawn) was tested, and the T/C [4] was 85 % of control and 99 % of control and the T/C (dose: 75.0 mg/kg/injection, schedule: Q01DX007 (ip), vehicle: saline) was 26 % of control and 43 % of control.
In the case of `CNC(C)=O`, the T/C (dose: 125.0 mg/kg/injection, schedule: Q01DX007 (ip), vehicle: carboxymethylcellulose (CMC)) is reported as 84 % of control, the T/C (dose: 250.0 mg/kg/injection, schedule: Q01DX007 (ip), vehicle: carboxymethylcellulose (CMC)) is reported as 90 % of control and 106 % of control and the T/C (dose: 500.0 mg/kg/injection, schedule: Q01DX007 (ip), vehicle: carboxymethylcellulose (CMC)) is reported as 71 % of control. The T/C (dose: 623.2 mg/kg/injection, schedule: Q01DX007 (ip), vehicle: carboxymethylcellulose (CMC)) was 72 % of control, the T/C (dose: 779.0 mg/kg/injection, schedule: Q01DX007 (ip), vehicle: carboxymethylcellulose (CMC)) was 75 % of control and the T/C (dose: 1038.66 mg/kg/injection, schedule: Q01DX007 (ip), vehicle: carboxymethylcellulose (CMC)) was 69 % of control. For the same compound, the T/C (dose: 1558.0 mg/kg/injection, schedule: Q01DX007 (ip), vehicle: carboxymethylcellulose (CMC)) was 58 % of control and the T/C (dose: 2000.0 mg/kg/injection, schedule: Q01DX007 (ip), vehicle: carboxymethylcellulose (CMC)) was 23 % of control.
